# Reference: patent US8802639B2, “RNA interference modulators of hedgehog signaling and uses thereof” (Curis, Inc., priority 2004, dated 2014)
# {P} = phosphate
# Experiments:
# [1] = tested on: Sp-C expression in embryonic mouse lungs; assay: Sp-C (surfactant type C) expression in embryonic mouse lung explants (Q-RT-PCR); type: cell-based; conditions: embryonic lung cultures (FIG. 10, FIG. 11)
# Procedure: Surfactant production is a measure of lung maturity, and the inability to produce surfactant is the primary cause of adult and infant respiratory distress syndrome. The increase in surfactant type C production was assessed by measuring expression of Sp-C, which encodes a protein critical for the production of surfactant.
# METHODS: E13.5 old embryonic mouse lungs were dissected. Explants were grown submerged in lung explant medium (DMEM based, additives optimized for the culture of mouse lungs) for 50 hrs. They were then processed for Q-RT-PCR. Briefly, total ribonucleic acid (RNA) is isolated from the tissue and subjected to reverse transcription to generate DNA. This DNA is amplified in a polymerase chain reaction using gene-specific primers as well as primers for the ubiquitously expressed housekeeping gene GAPDH. The two primer sets are labeled with different fluorophores, allowing for quantification of both signals in the same reaction tube in a real-time PCR machine (TaqMan). When calculating the expression level of Sp-C, the specific signal is normalized to the GAPDH signal, which serves as a measure of the total DNA used in the reaction.
# Steroids are known to increase lung maturation and surfactant production in animals, including humans.
# [2] = target: Sonic hedgehog (Shh), functional hedgehog protein secreted by human cancer cell lines (human) (UniProt Q15465); assay: cell-based or functional assay
# Chain of UniProt Q15465 (Q15465 24-197 limits assumed): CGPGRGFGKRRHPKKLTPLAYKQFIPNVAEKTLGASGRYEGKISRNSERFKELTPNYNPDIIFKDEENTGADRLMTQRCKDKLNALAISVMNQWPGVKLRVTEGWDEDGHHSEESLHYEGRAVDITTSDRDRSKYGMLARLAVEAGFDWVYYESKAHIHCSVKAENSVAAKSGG
# human Shh = assay: siRNA inhibition of Shh expression in transfected HEK-293 cells (immunostaining); type: cell-based; conditions: for inhibition of Shh expression: 0.4 μg phShh plasmid + 20, 100 or 500 pmole siRNA, about 68 hours, anti-Shh staining (FIG. 2)
# Procedure: To test the effectiveness of the three siRNA antagonists, a confluent plate of HEK-293 cells were splited 1:3 and plated onto a 24-well tissue culture plate. The final density of cells was about 14,000 cells/well. Lipofectamine infection was carried out according to manufacturer's instruction. Specifically, 0.4 μg phShh^FL (a human Shh-encoding plasmid “pcDNA3.1-hShh”) and either 0, 20, 100, or 500 pmole of each annealed Shh siRNA antagonist were mixed in 25 μL of serum-free DMEM (no Pen./Strep.) with 4 μL of “Plus Reagent” for 15 minutes. At the same time, 1 μL of Lipofectamine was mixed in 25 μL of serum-free DMEM (no Pen./Strep.) with 4 μL of “Plus Reagent” for 15 minutes. At the end of the incubation, the two mixtures were combined to form complexes for 15 minutes. For each well of HEK-293 cells, the medium was changed to 200 μL of serum-free DMEM (no Pen./Strp.), and the formed complexes were then added to the respective test wells. After 3 hours of incubation at 37° C. in a 5% CO2 tissue culture incubator, 250 μL of DMEM (no Pen./Strep.) with 20% FBS were added to each well. The plate of cells were then returned to the incubator. After about 68 hours of incubation, cells in each well were fixed in 4% PFA/PAS, and stained with 1:200 dilution of rabbit anti-Shh antibody and Cy3-labeled anti-rabbit secondary antibody. […] Therefore, #1 siRNA was used for future experiments.
# (§1) Next, the specificity of the inhibitory effects #1 Shh siRNA antagonist was tested against two other related Hh proteins, Ihh and Dhh. Specifically, the same HEK-293 cells were splited and seeded to a final density of about 14,000 cells/well in a 24-well tissue culture plate. The same Lipofectamine transfection as described above were carried out for each of the following combinations: • 0.4 μg of pcDNA3.1-hShh+0, 50, or 250 pmoles of siRNA #1; • 0.4 μg of pcDNA3.1-hIhh+0, 50, or 250 pmoles of siRNA #1; • 0.4 μg of pcDNA3.1-hDhh+0, 50, or 250 pmoles of siRNA #1; and, • 0.4 μg of pcDNA3.1-hShh+250 pmoles of siRNA #1 reverse strand only control.
# (§2) After 2 hours of incubation with each of the complexes, the medium in each transfection well was replaced with 1 mL of fresh DMEM (no Pen./Strep.)+10% FBS, for the purpose of getting healthier cells at the end of the experiment. After 2 more days of incubation, all cells were fixed as described above, and stained with H-160 pan-Hh rabbit polyclonal antibody (Cat. No. sc-9024, Santa Cruz Biotechnology, CA) and Cy3-labeled anti-rabbit secondary antibody.
# Ihh (pcDNA3.1-hIhh) = assay: siRNA specificity test, Ihh expression in transfected HEK-293 cells; type: cell-based, human; conditions: pcDNA3.1-hIhh + 50 or 250 pmoles siRNA (FIG. 3)
# Procedure: as §1, §2
# Dhh (pcDNA3.1-hDhh) = assay: siRNA specificity test, Dhh expression in transfected HEK-293 cells; type: cell-based, human; conditions: pcDNA3.1-hDhh + 50 or 250 pmoles siRNA (FIG. 3)
# Procedure: as §1, §2
compound,measurement,setting,value
C[C@]12CCC(=O)C=C1CC[C@@H]1[C@@H]2[C@@H](O)C[C@@]2(C)[C@H]1CC[C@]2(O)C(=O)CO [hydrocortisone],Sp-C expression,[1],increase in Sp-C expression
Shh blocking antibody (5E1),"inhibition of luciferase expression in S12 cells (gli-Luc assay, S12/RT-4 co-cultures), IC50",[2],0.085 µg/mL
same,"inhibition of luciferase expression in S12 cells (gli-Luc assay, S12/RT-4 co-cultures), IC90",[2],0.5 µg/mL
"siRNA #1: siRNA duplex against human Shh; sense 5′-P cga gau guc ugc ugc uag ucc (SEQ ID NO: 5), antisense SEQ ID NO: 6 (sense CGAGAUGUCUGCUGCUAGUCC; antisense ACUAGCAGCAGACAUCUCGCC; RNA, 5' {P}, backbone not given here)",inhibition of Shh expression,human Shh,nearly completely inhibits Shh expression
same,specificity for Shh as compared to Ihh and Dhh,human Shh; 50 or 250 pmoles siRNA (FIG. 3),very specific for Shh
same,inhibition of expression of human Shh,"human Shh; pcDNA3.1-hShh + 50 pmoles siRNA, H-160 pan-Hh staining (FIG. 3)",almost completely inhibited expression of human Shh
same,inhibition of Ihh expression,Ihh (pcDNA3.1-hIhh),did not obviously inhibit Ihh or Dhh expression
same,inhibition of Dhh expression,Dhh (pcDNA3.1-hDhh),did not obviously inhibit Ihh or Dhh expression
"siRNA #4: siRNA duplex against human Shh; sense 5′-P cag agu agc ccu aac cgc ucc (SEQ ID NO: 7), antisense SEQ ID NO: 8 (sense CAGAGUAGCCCUAACCGCUCC; antisense AGCGGUUAGGGCUACUCUGCC; RNA, 5' {P}, backbone not given here)",inhibition of Shh expression,human Shh,less pronounced
"siRNA #5: siRNA duplex against human Shh; sense 5′-P cgg uca agu cca gcu gaa gcc (SEQ ID NO: 9), antisense SEQ ID NO: 10 (sense CGGUCAAGUCCAGCUGAAGCC; antisense CUUCAGCUGGACUUGACCGCC; RNA, 5' {P}, backbone not given here)",inhibition of Shh expression,human Shh,slightly less effective than #1
